Source: PubChem BioAssay AID1417 (Emory University Molecular Libraries Screening Center, 2008)

What follows are compounds tested against Induced myeloid leukemia cell differentiation protein Mcl-1 (Homo sapiens) (UniProt Q07820) (assay: Mcl-1 Noxa peptide disruption concentration-response – biochemical, TR-FRET, dose response (AID 1417)). Settings: Mcl-1/Noxa peptide interaction, cell-free TR-FRET (terbium/rhodamine), 2 h; measured here: absolute IC50.
Induced myeloid leukemia cell differentiation protein Mcl-1 (Homo sapiens), sequence (Q07820 whole entry, looked up): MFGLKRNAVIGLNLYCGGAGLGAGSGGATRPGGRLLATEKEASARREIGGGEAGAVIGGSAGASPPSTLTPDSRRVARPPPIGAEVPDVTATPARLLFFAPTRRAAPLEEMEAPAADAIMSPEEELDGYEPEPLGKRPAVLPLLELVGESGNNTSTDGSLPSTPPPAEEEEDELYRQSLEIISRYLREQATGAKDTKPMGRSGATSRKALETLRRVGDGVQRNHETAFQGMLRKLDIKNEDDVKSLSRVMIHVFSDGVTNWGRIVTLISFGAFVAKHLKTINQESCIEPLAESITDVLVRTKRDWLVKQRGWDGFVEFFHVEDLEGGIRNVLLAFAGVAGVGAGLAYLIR

`O=C1CCCC2=C1C(c1ccc(O)c(O)c1)Nc1ccc3ncccc3c12` (stereo not drawn) and `Cc1c(O)ccc(/C=N/Nc2nc(-c3cccnc3)nc3ccccc23)c1O` cannot be ordered by IC50: < 0.4 µM for the first, < 0.4 µM for the second.

First: COc1ccc(NC(=O)Cn2ncc(Cl)c(Cl)c2=O)cc1S(=O)(=O)N1CCOCC1
Second: O=C(CSc1nc2ccccc2s1)Nc1cc(S(=O)(=O)N2CCOCC2)ccc1O
The IC50 of the first is 6.8-fold higher: 4.88 µM for the first, 0.722 µM for the second.

`O=C(/C=C/c1ccc(O)c(O)c1)O[C@H](Cc1ccc(O)c(O)c1)C(=O)O` and `N[C@@H](Cc1cc(I)c(Oc2ccc(O)c(I)c2)c(I)c1)C(=O)O` cannot be ordered by IC50: < 0.4 µM for the first, < 0.4 µM for the second.

First: O=C1NC(=S)N/C1=C/c1ccc(-c2c(Br)cc([N+](=O)[O-])cc2Br)o1
Second: O=C1NC(=S)S/C1=C\C=C\c1ccc([N+](=O)[O-])o1
The IC50 of the first is higher: 1.45 µM for the first, < 0.4 µM for the second. The second is the more potent here.

First: Cc1ccc(C2C(/C=C3/SC(=S)NC3=O)=C(c3cccs3)Oc3ccccc32)cc1 (stereo not drawn)
Second: Cc1ccc2nc(N3C(=O)C(O)=C(C(=O)c4cc5ccccc5o4)C3c3cccs3)sc2c1 (stereo not drawn)
The IC50 of the first is lower: < 0.4 µM for the first, 1.22 µM for the second.

`COc1ccc(C(=O)Nc2cccc(/C=C(\CCC(=O)O)c3nc4ccccc4s3)c2)cc1` and `O=C(Nc1cccc(Oc2ccc(C(=O)O)c(C(=O)O)c2)c1)c1ccc(-c2ccccc2)cc1` are within 1.5-fold of each other in IC50: 3.94 µM for the first, 3.61 µM for the second.

Compared with `O=c1ccc2[n+]([O-])c3ccc(O)cc3oc-2c1`, `Cc1cc(N=Cc2c(O)ccc3cc(Br)ccc23)no1` is lower in IC50: > 54 µM for the first, 53.5 µM for the second.

Compared with `COc1cc(/C=C2\CC/C(=C\c3cc(OC)c(O)c(OC)c3)C2=O)cc(OC)c1O`, `COc1cc(C2C(C#N)=C(N)OC3=C2C(=O)CCC3)c([N+](=O)[O-])cc1OC` (stereo not drawn) is higher in IC50: < 0.4 µM for the first, 5.16 µM for the second. The first is the more potent here.

Going from `CC(=O)N1CCc2cc(S(=O)(=O)NC(Cc3ccccc3)C(=O)NC3CCCCCC3)ccc21` (stereo not drawn) to `O=C(O)CSc1cc(NS(=O)(=O)c2cccc([N+](=O)[O-])c2)c2ccccc2c1O`, the IC50 falls from > 54 µM to < 0.4 µM. The second is the more potent here.

First: C=CCn1c(N2CCCCCC2)nc2c1c(=O)n(C)c(=O)n2C
Second: O=C(Cc1ccc(S(=O)(=O)N2CCOCC2)s1)Nc1nc2c(s1)CCCC2
The IC50 of the first is higher: > 54 µM for the first, 5.18 µM for the second. The second is the more potent here.

Going from `CCCc1ccc(/C=C2\C(=O)c3ccccc3C(O)=C2C(=O)OCC)cc1` to `O=C(O)CCC(=O)NCCC1=c2ccccc2=N/C1=C\c1c(O)n(Cc2ccc(F)cc2)c(=S)[nH]c1=O`, the IC50 falls from > 54 µM to < 0.4 µM. The second is the more potent here.

Compared with `COc1cc(/C=C2\SC(=O)NC2=O)ccc1Oc1ccc([N+](=O)[O-])cc1[N+](=O)[O-]`, `COc1ccc(/C=N/NC(=O)c2cc(O)c(O)c(O)c2)cc1Cn1cc([N+](=O)[O-])cn1` is lower in IC50: 3.29 µM for the first, < 0.4 µM for the second. The second is the more potent here.

Going from `COc1ccc(-c2ccc(/C=N/NC(=O)c3cccnc3)o2)c([N+](=O)[O-])c1` to `CC1=NOC(=O)/C1=C\c1ccc(-c2ccc(Cl)cc2Cl)o1`, the IC50 falls from 4.32 µM to < 0.4 µM. The second is the more potent here.

Going from `O=C(CSc1n[nH]c(=O)[nH]c1=O)Nc1ccc2c(c1)C(=O)c1ccccc1C2=O` to `COc1ccccc1/C=C1/SC(=O)N(CCC(=O)Nc2ccc(S(=O)(=O)Nc3nccs3)cc2)C1=O`, the IC50 falls from > 54 µM to 2.85 µM. The second is the more potent here.

Compared with `Cc1ccc(-n2cccc2/C=C2\C(=N)N3N=C(c4ccco4)SC3=NC2=O)cc1`, `O=C1NC(=S)NC(=O)C1=Cc1cccn1-c1ccc(O)cc1` is 2.2-fold higher in IC50: 1.53 µM for the first, 3.36 µM for the second. The first is the more potent here.

Compared with `N=c1c(C(=O)NCc2ccc3c(c2)OCO3)cc2c(=O)n3ccccc3nc2n1Cc1cccnc1`, `O=C(O)CSc1cc(C(=O)c2cc(F)ccc2O)cn2c(=O)c3c(-c4ccccc4)csc3nc12` is 1.5-fold lower in IC50: 3.26 µM for the first, 2.12 µM for the second.

First: CSc1nc(NCCOCCO)c2sc3nc(-c4ccco4)c4c(c3c2n1)CCC4
Second: O=C(NCCO)c1ccc2nc(-c3ccco3)c(-c3ccco3)nc2c1
The IC50 of the first is lower: < 0.4 µM for the first, 0.527 µM for the second. The first is the more potent here.

`Oc1c(/C=N/c2ccccn2)sc2ccccc12` and `O=C1NC(=Nc2ccccc2)S/C1=C\C=C\c1ccco1` cannot be ordered by IC50: < 0.4 µM for the first, < 0.4 µM for the second.

Compared with `CC(C)(C)c1ccc(CN2N=Nc3ccccc3S2(=O)=O)cc1`, `N#Cc1cc(-c2ccccc2)nn1-c1ccccc1` is lower in IC50: 18.9 µM for the first, < 0.4 µM for the second.

`O=C(Nc1ccccc1Cl)c1cnccn1` and `COc1ccc(C(=O)c2sc3nc(-c4ccccc4)ccc3c2N)cc1OC` cannot be ordered by IC50: > 54 µM for the first, > 54 µM for the second.

First: Cc1ccc(N2C(=O)NC(=O)/C(=C/c3cnc(-c4ccccc4)nc3)C2=O)cc1C
Second: COc1ccc2nc(-n3c(O)c(C4=c5ccccc5=NC4=O)[nH]c3=S)sc2c1
The IC50 of the first is higher: 16.3 µM for the first, < 0.4 µM for the second.

First: CC(C)CC1NC(=O)N(CC(=O)c2ccc3c(c2)OCCO3)C1=O (stereo not drawn)
Second: COc1ccc(O)c(C(=O)c2cc(SCC(=O)O)c3nc4sc5c(c4c(=O)n3c2)CCCC5)c1
The IC50 of the first is higher: > 54 µM for the first, < 0.4 µM for the second.

Compared with `COc1ccc(N2CCC(CNC(=O)Nc3ccc(Cl)cc3)C2)cc1` (stereo not drawn), `Cc1cc(C)c2oc(C(=O)Nc3ccc(S(=O)(=O)Nc4nccs4)cc3)cc(=O)c2c1` is 11-fold lower in IC50: 51.7 µM for the first, 4.58 µM for the second.

Going from `CCOC(=O)c1c(NC(=O)N/N=C/c2ccc(O)c(OC)c2)sc(C(C)=O)c1C` to `Cc1sc(NC(=O)c2sc3nc4c(C)cccc4cc3c2N)c(C#N)c1C`, the IC50 falls from 1.59 µM to < 0.4 µM. The second is the more potent here.

`Nc1ncnc2oc(-c3ccco3)c(-c3ccco3)c12` and `NC(=S)n1[nH]c(-c2ccc([N+](=O)[O-])cc2)c(N=Nc2ccc(O)cc2)c1=O` are within 1.5-fold of each other in IC50: 3.7 µM for the first, 3.13 µM for the second.

Going from `CCc1ccc2nc3sc(C(=O)Nc4nnc(CC)s4)c(N)c3cc2c1` to `Cn1cnnc1SCC(=O)Nc1sc2c(c1C(N)=O)CCC2`, the IC50 falls from > 54 µM to 1.81 µM. The second is the more potent here.

Compound `CNC(=S)Nc1sc2c(c1C(=O)OC)CCC2` has an IC50 of 1.32 µM.
